# Experimental data reported in US11746100B2 (GLOBAL BLOOD THERAPEUTICS, INC., priority 2020, dated 2023).
# Target: T1, human ferroportin (Homo sapiens, UniProt Q9NP59)
# T1 construct: luciferase reporter (read with the Nano-Glo Luciferase Assay System); expressed in transfected cells; host or cells: CHO cells, stably transfected, expression induced with doxycycline
# T1 sequence (Q9NP59 1-571): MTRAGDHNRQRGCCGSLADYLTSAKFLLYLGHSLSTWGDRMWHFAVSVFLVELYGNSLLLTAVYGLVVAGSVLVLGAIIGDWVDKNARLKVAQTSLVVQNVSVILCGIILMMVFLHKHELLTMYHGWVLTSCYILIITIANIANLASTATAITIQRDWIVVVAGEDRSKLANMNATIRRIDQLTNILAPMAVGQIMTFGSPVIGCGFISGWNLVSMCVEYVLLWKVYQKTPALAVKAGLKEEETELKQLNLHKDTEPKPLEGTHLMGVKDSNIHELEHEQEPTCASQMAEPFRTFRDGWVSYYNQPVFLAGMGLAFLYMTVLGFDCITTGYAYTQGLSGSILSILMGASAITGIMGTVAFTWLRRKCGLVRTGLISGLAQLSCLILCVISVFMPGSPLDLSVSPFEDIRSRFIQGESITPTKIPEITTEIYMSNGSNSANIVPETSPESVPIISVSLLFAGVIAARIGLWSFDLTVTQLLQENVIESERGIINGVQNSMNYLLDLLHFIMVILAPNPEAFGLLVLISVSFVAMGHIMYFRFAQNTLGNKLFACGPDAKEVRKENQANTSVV
# Experiment: Biological in-vitro ferroportin internalization assay (luciferase reporter)
# Assay type: cell-based
# Conditions: average pEC50; stably-transfected CHO cell line expressing human ferroportin tagged to a luciferase reporter; 6 h incubation with test compound
# Method in brief: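 Stably transfected CHO cells expressing luciferase-tagged human ferroportin, plated 24 h with ferric ammonium citrate and induced with doxycycline for 24 h. Compounds incubated 6 h, then luciferase activity measured by Nano-Glo; average pEC50 reported.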
row,pEC50,Compound
1,8.1,"CN(CC(=O)NC(C)(C)C)c1nc(-c2cc(OCCO)ccn2)nc2c1C(C)(C)CC2 [Compound 361, N-tert-butyl-2-({2-[4-(2-hydroxyethoxy)pyridin-2-yl]-5,5-dimethyl-5H,6H,7H-cyclopenta[d]pyrimidin-4-yl}(methyl)amino)acetamide]"
2,8.5,"CN(CC(=O)NC(C)(C)C)c1nc(-c2cc(OCC3(O)CCCCC3)ccn2)nc2c1CCC2 [Compound 396, N-tert-butyl-2-[(2-{4-[(1-hydroxycyclohexyl)methoxy]pyridin-2-yl}-5H,6H,7H-cyclopenta[d]pyrimidin-4-yl)(methyl)amino]acetamide]"
3,7.8,"COc1ccc(NC(=O)CN(C)c2nc(-c3cc(OCC(C)(C)O)ccn3)nc3c2CCC3)nc1 [Compound 214, 2-({2-[4-(2-hydroxy-2-methylpropoxy)pyridin-2-yl]-5H,6H,7H-cyclopenta[d]pyrimidin-4-yl}(methyl)amino)-N-(5-methoxypyridin-2-yl)acetamide]"
4,5.6,"O=C1CCN(c2nc(-c3ccccn3)nc3c2CCC3)CCN1 [Compound 50, 1-[2-(pyridin-2-yl)-5H,6H,7H-cyclopenta[d]pyrimidin-4-yl]-1,4-diazepan-5-one]"
5,6.4,"COc1ccc(NC(=O)CN(C)c2nc(-c3cc4cccnc4cn3)nc3c2CCC3)cn1 [Compound 244, N-(6-methoxypyridin-3-yl)-2-{methyl[2-(1,7-naphthyridin-6-yl)-5H,6H,7H-cyclopenta[d]pyrimidin-4-yl]amino}acetamide]"
6,5.7,"CN(CC(=O)NC(C)(C)C)c1nc(-c2ncc(CCO)s2)nc2c1CCC2 [Compound 107, N-tert-butyl-2-({2-[5-(2-hydroxyethyl)-1,3-thiazol-2-yl]-5H,6H,7H-cyclopenta[d]pyrimidin-4-yl}(methyl)amino)acetamide]"
7,7.1,"CN(C)CCOc1ccnc(-c2nc3c(c(N(C)CC(=O)N4CCCC4)n2)CCC3)c1 [Compound 417, 2-[(2-{4-[2-(dimethylamino)ethoxy]pyridin-2-yl}-5H,6H,7H-cyclopenta[d]pyrimidin-4-yl)(methyl)amino]-1-(pyrrolidin-1-yl)ethan-1-one]"
8,7.6,"Cc1ccnc(-c2nc3c(c(N(C)CC(=O)NC(C)(C)C)n2)CCC3)c1 [Compound 24, N-tert-butyl-2-{methyl[2-(4-methylpyridin-2-yl)-5H,6H,7H-cyclopenta[d]pyrimidin-4-yl]amino}acetamide]"
9,8.2,"CN(CC(=O)NC(C)(C)C)c1nc(-c2cc(OCC3(O)CCC3)ccn2)nc2c1CCC2 [Compound 388, N-tert-butyl-2-[(2-{4-[(1-hydroxycyclobutyl)methoxy]pyridin-2-yl}-5H,6H,7H-cyclopenta[d]pyrimidin-4-yl)(methyl)amino]acetamide]"
10,7.4,"COc1ccnc(-c2nc3c(c(N(C)CC(=O)NC4CCOC4)n2)CCC3)c1 (stereo not drawn) [Compound 135, 2-{[2-(4-methoxypyridin-2-yl)-5H,6H,7H-cyclopenta[d]pyrimidin-4-yl](methyl)amino}-N-(oxolan-3-yl)acetamide]"
11,7.3,"COc1ccnc(-c2nc3c(c(N(C)CC(=O)N[C@H]4CCCC[C@H]4O)n2)CCC3)c1 [Compound 169, N-[(1S,2R)-2-hydroxycyclohexyl]-2-{[2-(4-methoxypyridin-2-yl)-5H,6H,7H-cyclopenta[d]pyrimidin-4-yl](methyl)amino}acetamide]"
12,7.4,"CN(CC(=O)NC1CCCCC1)c1nc(-c2ccccn2)nc2c1CCC2 [Compound 78, N-cyclohexyl-2-{methyl[2-(pyridin-2-yl)-5H,6H,7H-cyclopenta[d]pyrimidin-4-yl]amino}acetamide]"
13,7.1,"CN(C)c1ccnc(-c2nc3c(c(N(C)CC(=O)NC(C)(C)C)n2)CCC3)c1 [Compound 102, N-tert-butyl-2-({2-[4-(dimethylamino)pyridin-2-yl]-5H,6H,7H-cyclopenta[d]pyrimidin-4-yl}(methyl)amino)acetamide]"
14,7.9,"CN(CC(=O)NC(C)(C)C)c1nc(-c2cc3cn[nH]c3cn2)nc2c1CCC2 [Compound 110, N-tert-butyl-2-[methyl(2-{1H-pyrazolo[3,4-c]pyridin-5-yl}-5H,6H,7H-cyclopenta[d]pyrimidin-4-yl)amino]acetamide]"
15,7.6,"Cc1cnc(-c2nc3c(c(N(C)CC(=O)NC(C)(C)C)n2)CCC3)cc1C [Compound 60, N-tert-butyl-2-{[2-(4,5-dimethylpyridin-2-yl)-5H,6H,7H-cyclopenta[d]pyrimidin-4-yl](methyl)amino}acetamide]"
16,7.4,"COc1ccc(NC(=O)CN(C)c2nc(-c3cn(C)cn3)nc3c2CCC3)cn1 [Compound 201, N-(6-methoxypyridin-3-yl)-2-{methyl[2-(1-methyl-1H-imidazol-4-yl)-5H,6H,7H-cyclopenta[d]pyrimidin-4-yl]amino}acetamide]"
17,7.7,"Cc1ccnc(-c2nc3c(c(N(C)CC(=O)Nc4cccc(F)c4)n2)CCC3)c1 [Compound 66, N-(3-fluorophenyl)-2-{methyl[2-(4-methylpyridin-2-yl)-5H,6H,7H-cyclopenta[d]pyrimidin-4-yl]amino}acetamide]"
18,6.8,"COc1cccc2c1CCN(c1nc(-c3ccccn3)nc3c1CCC3)CC2 [Compound 3, 6-methoxy-3-[2-(pyridin-2-yl)-5H,6H,7H-cyclopenta[d]pyrimidin-4-yl]-2,3,4,5-tetrahydro-1H-3-benzazepine]"
19,7.5,"CN(CC(=O)N1CCCCC1)c1nc(-c2cc(OC3COC3)ccn2)nc2c1CCC2 [Compound 323, 2-[methyl({2-[4-(oxetan-3-yloxy)pyridin-2-yl]-5H,6H,7H-cyclopenta[d]pyrimidin-4-yl})amino]-1-(piperidin-1-yl)ethan-1-one]"
20,8.1,"Cc1cccc(NC(=O)CN(C)c2nc(-c3cc(OCCO)ccn3)nc3c2CCC3)c1 [Compound 292, 2-({2-[4-(2-hydroxyethoxy)pyridin-2-yl]-5H,6H,7H-cyclopenta[d]pyrimidin-4-yl}(methyl)amino)-N-(3-methylphenyl)acetamide]"
21,5.6,"CN(CC(=O)NC(C)(C)C)c1nc(-c2cncn2CCO)nc2c1CCC2 [Compound 196, N-tert-butyl-2-({2-[1-(2-hydroxyethyl)-1H-imidazol-5-yl]-5H,6H,7H-cyclopenta[d]pyrimidin-4-yl}(methyl)amino)acetamide]"
22,7.6,"CN(CC(=O)Nc1ccc(F)cc1)c1nc(-c2cc3cn(C)nc3cn2)nc2c1CCC2 [Compound 314, N-(4-fluorophenyl)-2-[methyl(2-{2-methyl-2H-pyrazolo[3,4-c]pyridin-5-yl}-5H,6H,7H-cyclopenta[d]pyrimidin-4-yl)amino]acetamide]"
23,7.6,"Cc1ccnc(-c2nc3c(c(N(C)CC(=O)NC4(C)CCOC4)n2)CCC3)c1 (stereo not drawn) [Compound 65, 2-{methyl[2-(4-methylpyridin-2-yl)-5H,6H,7H-cyclopenta[d]pyrimidin-4-yl]amino}-N-(3-methyloxolan-3-yl)acetamide]"
24,7,"CN(C)CCOc1ccnc(-c2nc3c(c(NCC(=O)NC(C)(C)C)n2)CCC3)c1 [Compound 484, N-tert-butyl-2-[(2-{4-[2-(dimethylamino)ethoxy]pyridin-2-yl}-5H,6H,7H-cyclopenta[d]pyrimidin-4-yl)amino]acetamide]"
25,7.5,"CCc1ccnc(-c2nc3c(c(N(C)CC(=O)NC(C)(C)C)n2)CCC3)c1 [Compound 100, N-tert-butyl-2-{[2-(4-ethylpyridin-2-yl)-5H,6H,7H-cyclopenta[d]pyrimidin-4-yl](methyl)amino}acetamide]"
26,7.5,"CN(CC(=O)Nc1ccc(F)cc1)c1nc(-c2cn(C)cn2)nc2c1CCC2 [Compound 202, N-(4-fluorophenyl)-2-{methyl[2-(1-methyl-1H-imidazol-4-yl)-5H,6H,7H-cyclopenta[d]pyrimidin-4-yl]amino}acetamide]"
27,8.2,"C[C@H]1C[C@@H](Oc2ccnc(-c3nc4c(c(N(C)CC(=O)NC(C)(C)C)n3)CCC4)c2)CN1C [Compound 502, N-tert-butyl-2-{[2-(4-{[(3R,5S)-1,5-dimethylpyrrolidin-3-yl]oxy}pyridin-2-yl)-5H,6H,7H-cyclopenta[d]pyrimidin-4-yl](methyl)amino}acetamide]"

row,Compound,pEC50
1,"CC[C@@H](O)COc1ccnc(-c2nc3c(c(N(C)CC(=O)NC(C)(C)C)n2)CCC3)c1 [Compound 393, N-tert-butyl-2-[(2-{4-[(2R)-2-hydroxybutoxy]pyridin-2-yl}-5H,6H,7H-cyclopenta[d]pyrimidin-4-yl)(methyl)amino]acetamide]",8.1
2,"CC[C@H](O)COc1ccnc(-c2nc3c(c(N(C)CC(=O)NC(C)(C)C)n2)CCC3)c1 [Compound 394, (S)—N-(tert-butyl)-2-((2-(4-(2-hydroxybutoxy)pyridin-2-yl)-6,7-dihydro-5H-cyclopenta[d]pyrimidin-4-yl)(methyl)amino)acetamide]",8.3
3,"CCC(O)(CC)COc1ccnc(-c2nc3c(c(N(C)CC(=O)NC(C)(C)C)n2)CCC3)c1 [Compound 395, N-tert-butyl-2-({2-[4-(2-ethyl-2-hydroxybutoxy)pyridin-2-yl]-5H,6H,7H-cyclopenta[d]pyrimidin-4-yl}(methyl)amino)acetamide]",8.4
